Data as given in PMC4180036 (Clinical pharmacology and therapeutics, 2014).

How the values were obtained:
[1] = Population pharmacokinetic modeling and covariate analysis; type: in vivo, human
[2] = in vivo
[3] = Base model (n=26), Bootstrap median (95% CI)
[4] = Base model (n=26), Estimate (CV %)
[5] = Covariate model (LBM, n=26), Bootstrap median (95% CI)
[6] = Covariate model (LBM, n=26), Estimate (CV %)

θCLM, metabolite clearance [1, 3]: 23.60 (4.76, 47.91) L/h
θV2, metabolite volume of distribution [1, 3]: 7.67 (0.09, 21.91) L
θCLM, metabolite clearance [1, 4]: 21.5 (8.9) L/h
θV2, metabolite volume of distribution [1, 4]: 7.18 (62.8) L
θCLM, metabolite clearance [1, 5]: 27.80 (4.04, 55.60) L/h
θV2, metabolite volume of distribution [1, 5]: 8.99 (0.04, 26.11) L
θCLM, metabolite clearance [1, 6]: 32.6 (10.4) L/h
θV2, metabolite volume of distribution [1, 6]: 11.6 (12.1) L
measurable OSI-420 in plasma [2]: no measureable OSI-420
Compound: C#Cc1cccc(Nc2ncnc3cc(OCCOC)c(OCCO)cc23)c1 [OSI-420]
OSI-420 detection in plasma [2]: ƛ OSI-420 was undetectable in one patient treated on Arm B
